Values of other authors as cited in patent US11446297B2, “Methods for treating hemolytic diseases and sickle cell disease” (Purdue Research, priority 2015, dated 2022).

Target: Syk (Homo sapiens, UniProt P43405)
Conditions: first IC column; kinase assay; Inactive@ 80 μM (r14)

COc1ccc2c(c1)c(/C=C1\C(=O)Nc3ccc(S(=O)(=O)N(C)C)cc31)cn2C [Compd 6]
IC@ (result in words): Inactive@
